Source: patent US11274097B2, “2-(het)aryl-substituted condensed bicyclic heterocycle derivatives as pest control agents” (BAYER CROPSCIENCE AKTIENGESELLSCHAFT, priority 2014, dated 2022)
Like-named read-outs stand apart in the source and are kept apart here.

Key:
Phaedon cochleariae = Phaedon cochleariae spray test (PHAECO); format: in vivo; conditions: larvae, after 7 days
Method: Phaedon cochleariae—Spray Test (PHAECO)
(§1) Solvent: 78.0 parts by weight of acetone • • 1.5 parts by weight of dimethylformamide
(§2) Emulsifier: alkylaryl polyglycol ether
(§3) To produce an appropriate active ingredient formulation, 1 part by weight of active ingredient is dissolved using the stated parts by weight of solvent and made up with water containing an emulsifier concentration of 1000 ppm until the desired concentration is attained. To produce further test concentrations, the preparation is diluted with emulsifier-containing water.
Discs of Chinese cabbage leaves (Brassica pekinensis) are sprayed with an active ingredient formulation of the desired concentration and, after drying, populated with larvae of the mustard beetle (Phaedon cochleariae).
After 7 days, the efficacy in % is determined. 100% means that all the beetle larvae have been killed; 0% means that no beetle larvae have been killed.

Spodoptera frugiperda = Spodoptera frugiperda spray test (SPODFR); format: in vivo; conditions: application rate 500 g/ha; maize leaf discs; after 7 days
Method: Spodoptera frugiperda—Spray Test (SPODFR)
as §1, §2, §3
Leaf discs of maize (Zea mays) are sprayed with an active ingredient formulation of the desired concentration and, after drying, populated with caterpillars of the armyworm (Spodoptera frugiperda).
After 7 days, the efficacy in % is determined. 100% means that all the caterpillars have been killed; 0% means that no caterpillars have been killed.

[1] = log P by HPLC on a reversed-phase column (C 18), EEC Directive 79/831 Annex V.A8; format: physicochemical; conditions: for LOGP_NEUTRAL: pH 7.8, 0.001 molar aqueous ammonium hydrogencarbonate/acetonitrile; for chromatographic logP: reversed-phase HPLC column (C 18)
Method: The log P values are measured according to EEC Directive 79/831 Annex V.A8 by HPLC (high-performance liquid chromatography) on a reversed-phase column (C 18). Temperature: 55° C. The LC-MS determination in the acidic range is effected at pH 2.7 using 0.1% aqueous formic acid and acetonitrile (contains 0.1% formic acid) as eluents, linear gradient from 10% acetonitrile to 95% acetonitrile. Called log P (HCOOH) in the table. LC-MS determination in the neutral range is effected at pH 7.8 with 0.001 molar aqueous ammonium hydrogencarbonate solution and acetonitrile as eluents; linear gradient from 10% acetonitrile to 95% acetonitrile. Called log P (neutral) in the table. Calibration is effected with unbranched alkan-2-ones (having 3 to 16 carbon atoms) with known log P values (log P values determined on the basis of the retention times by linear interpolation between two successive alkanone s).

Myzus persicae = Myzus persicae spray test (MYZUPE), Chinese cabbage leaf discs; format: in vivo; conditions: after 6 days
Method: Myzus persicae—Spray Test (MYZUPE)
Solvent: 78 parts by weight of acetone • • 1.5 parts by weight of dimethylformamide
Emulsifier: alkylaryl poly glycol ether
as §3
Discs of Chinese cabbage leaves (Brassica pekinensis) infested by all stages of the green peach aphid (Myzus persicae) are sprayed with an active ingredient formulation of the desired concentration.
After 6 days, the efficacy in % is determined. 100% means that all the aphids have been killed; 0% means that none of the aphids have been killed.

Tetranychus urticae = Tetranychus urticae spray test, OP-resistant (TETRUR); format: in vivo; conditions: application rate 500 g/ha; bean leaf discs; after 6 days
Method: Tetranychus urticae—Spray Test, OP-Resistant (TETRUR)
as §1, §2, §3
Discs of bean leaves (Phaseolus vulgaris) infested by all stages of the greenhouse red spider mite (Tetranychus urticae) are sprayed with an active ingredient formulation of the desired concentration.
After 6 days, the efficacy in % is determined. 100% means that all the spider mites have been killed; 0% means that none of the spider mites have been killed.

[2] = acidic range, pH 2.7, 0.1% aqueous formic acid/acetonitrile, 55° C.
[3] = neutral range, pH 7.8, read-out: log P (neutral)

LOGP_HCOOH [1, 2]	LOGP_NEUTRAL ([1]; neutral range, 55° C.)	chromatographic logP ([1]; acidic range, pH 2.7, 0.1% aqueous formic acid/acetonitrile, 55° C., read-out: LOGP_HCOOH)	chromatographic logP [1, 3]	Compound	efficacy (Phaedon cochleariae; application rate 500 g/ha)	efficacy (Spodoptera frugiperda)	efficacy (Myzus persicae; application rate 20 g/ha)	efficacy (Myzus persicae; application rate 500 g/ha)	efficacy (Tetranychus urticae)	efficacy (Phaedon cochleariae; application rate 100 g/ha)
3.17	3.10			CC[S+]([O-])c1cc(C(F)(F)F)cnc1-c1nc2cc(C(F)(F)F)ncc2n1C (centres unmarked) [Example I-37]	100%	100%				
3.52	3.45			CCC[S+]([O-])c1cc(C(F)(F)F)cnc1-c1nc2cc(C(F)(F)F)ncc2n1C (centres unmarked) [Example I-39]	100%	100%	90%			
2.15	2.08			Cn1c(-c2ccc(Cl)cc2[S+](C)[O-])nc2cc(C(F)(F)F)ncc21 (centres unmarked) [Example I-10]	100%			100%		
1.88	1.83			Cn1c(-c2ccc(F)cc2[S+](C)[O-])nc2cc(C(F)(F)F)ncc21 (centres unmarked) [Example I-12]	100%			90%		
3.16	3.07			Cn1c(-c2ncc(C(F)(F)F)cc2S(=O)(=O)CCF)nc2cc(C(F)(F)F)ncc21 [Example I-54]	100%	100%				
3.29	3.22			CCSc1cc(C(F)(F)F)cnc1-c1nc2nc(C(F)(F)F)ncc2n1C [Example I-28]	100%				90%	
3.52	3.48			CCSc1cc(C(F)(F)F)cnc1-c1nc2cc(C(F)(F)F)ncc2n1C [Example I-2]	100%	100%			90%	
1.61	1.56			CCS(=O)(=O)c1cc(C(N)=O)cnc1-c1nc2cc(C(F)(F)F)ncc2n1C [Example I-56]				90%		
1.90	1.87			CC[S+]([O-])c1ccccc1-c1nc2cc(C(F)(F)F)ncc2n1C (centres unmarked) [Example I-22]	100%			100%	90%	
2.94	2.87			CCSc1ccccc1-c1nc2cc(C(F)(F)F)ncc2n1C [Example I-17]				90%		83%
2.53				CCS(=O)(=O)c1ccc(OC)nc1-c1nc2cc(C(F)(F)F)ncc2n1C [Example I-45]	100%			90%		
4.02	3.96			CCSCCSc1cc(C(F)(F)F)cnc1-c1nc2cc(C(F)(F)F)ncc2n1C [Example I-23]				100%		
2.48				CC[S+]([O-])c1c(C(F)(F)F)ccnc1-c1nc2cc(C(F)(F)F)ncc2n1C (centres unmarked) [Example I-51]	100%			90%		
2.45	2.36			CC[S+]([O-])c1cc(Cl)ccc1-c1nc2cc(C(F)(F)F)ncc2n1C (centres unmarked) [Example I-44]	100%			100%	90%	
2.71	2.63			CC[S+]([O-])c1cccnc1-c1nc2cc(C(F)(F)C(F)(F)F)ncc2n1C (centres unmarked) [Example I-61]	100%	100%		90%		
2.39	2.27			CCSc1ccc(NC(C)=O)nc1-c1nc2cc(C(F)(F)F)ncc2n1C [Example I-50]	100%			90%		

LOGP_HCOOH [1, 2]	LOGP_NEUTRAL ([1]; neutral range, 55° C.)	chromatographic logP ([1]; acidic range, pH 2.7, 0.1% aqueous formic acid/acetonitrile, 55° C., read-out: LOGP_HCOOH)	chromatographic logP [1, 3]	Compound	efficacy (Phaedon cochleariae; application rate 500 g/ha)	efficacy (Spodoptera frugiperda)	efficacy (Myzus persicae; application rate 20 g/ha)	efficacy (Myzus persicae; application rate 500 g/ha)	efficacy (Tetranychus urticae)	efficacy (Phaedon cochleariae; application rate 100 g/ha)
2.69	2.61			CCS(=O)(=O)c1cc(Cl)ccc1-c1nc2cc(C(F)(F)F)ncc2n1C [Example I-43]	100%			100%		
2.98	2.92			CCSc1cccnc1-c1nc2cc(C(F)(F)C(F)(F)F)ncc2n1C [Example I-46]	100%	100%		90%		
2.05	1.99			CCS(=O)(=O)c1ccc(NC(C)=O)nc1-c1nc2cc(C(F)(F)F)ncc2n1C [Example I-49]	100%			90%		
3.04	2.93			Cn1c(-c2ncccc2SC(F)(F)F)nc2cc(C(F)(F)F)ncc21 [Example I-29]	100%					
3.12	3.01			CCSc1cc(C(F)(F)F)cnc1-c1nc2cc(Cl)ncc2n1C [Example I-55]	100%					
2.68	2.63			CCS(=O)(=O)c1ccc(Cl)cc1-c1nc2cc(C(F)(F)F)ncc2n1C [Example I-38]	100%			90%		
	2.76	2.81	2.76	Cn1c(-c2ncc(C(F)(F)F)cc2[S+](C)[O-])nc2cc(C(F)(F)F)ncc21 (centres unmarked) [Example I-26, 3-methyl-2-[3-(methylsulphinyl)-5-(trifluoromethyl)pyridin-2-yl]-6-(trifluoro-methyl)-3H-imidazo[4,5-c]pyridine]	100%	100%				
2.44	2.34			CC[S+]([O-])c1ccc(Cl)cc1-c1nc2cc(C(F)(F)F)ncc2n1C (centres unmarked) [Example I-13]	100%			100%	90%	
3.12				CCSc1ccc(OC)nc1-c1nc2cc(C(F)(F)F)ncc2n1C [Example I-53]	100%				90%	
2.70	2.65			CSc1cc(F)ccc1-c1nc2cc(C(F)(F)F)ncc2n1C [Example I-4]	100%			90%		
2.39	2.32			CCSc1cccnc1-c1nc2cc(C(F)(F)F)ncc2n1C [Example I-24]	100%			100%		
2.67	2.64		2.64	Cn1c(-c2ncc(C(F)(F)F)cc2S(C)(=O)=O)nc2cc(C(F)(F)F)ncc21 [Example I-36, 3-Methyl-2-[3-(methylsulphonyl)-5-(trifluoromethyl)pyridin-2-yl]-6-(trifluoromethyl)-3H-imidazo[4,5-c]pyridine]	100%					
4.10	4.02			CCSc1cc(C(F)(F)F)cnc1-c1nc2cc(C(F)(F)C(F)(F)F)ncc2n1C [Example I-47]	100%	100%				
3.75	3.62			CC[S+]([O-])c1cc(C(F)(F)F)cnc1-c1nc2cc(C(F)(F)C(F)(F)F)ncc2n1C (centres unmarked) [Example I-63]	83%	100%				
2.25	2.20			COc1ccc(S(C)(=O)=O)c(-c2nc3cc(C(F)(F)F)ncc3n2C)n1 [Example I-73]	100%					

Compound	LOGP_HCOOH [1, 2]	LOGP_NEUTRAL ([1]; neutral range, 55° C.)	chromatographic logP ([1]; acidic range, pH 2.7, 0.1% aqueous formic acid/acetonitrile, 55° C., read-out: LOGP_HCOOH)	chromatographic logP [1, 3]	efficacy (Phaedon cochleariae; application rate 500 g/ha)	efficacy (Spodoptera frugiperda)	efficacy (Myzus persicae; application rate 20 g/ha)	efficacy (Myzus persicae; application rate 500 g/ha)	efficacy (Tetranychus urticae)	efficacy (Phaedon cochleariae; application rate 100 g/ha)
CCS(=O)(=O)c1cc(C(F)(F)F)cnc1-c1nc2cc(Cl)ncc2n1C [Example I-52]	2.61	2.51			100%			100%		
